Measured values as given in patent US6610270B1, “In vivo determination of metabolic function for use in therapy management” (Xanthus Life Sciences, Inc., priority 1998, dated 2003).

Experiments:
[1] = target: T1, cystathionine synthase (CS) (Oryctolagus cuniculus, UniProt Q9N0V7); test: CS gateway enzyme breath test with homocysteine metaprobe, basal and after methionine load; details: n = 4
T1 sequence (Q9N0V7 1-551): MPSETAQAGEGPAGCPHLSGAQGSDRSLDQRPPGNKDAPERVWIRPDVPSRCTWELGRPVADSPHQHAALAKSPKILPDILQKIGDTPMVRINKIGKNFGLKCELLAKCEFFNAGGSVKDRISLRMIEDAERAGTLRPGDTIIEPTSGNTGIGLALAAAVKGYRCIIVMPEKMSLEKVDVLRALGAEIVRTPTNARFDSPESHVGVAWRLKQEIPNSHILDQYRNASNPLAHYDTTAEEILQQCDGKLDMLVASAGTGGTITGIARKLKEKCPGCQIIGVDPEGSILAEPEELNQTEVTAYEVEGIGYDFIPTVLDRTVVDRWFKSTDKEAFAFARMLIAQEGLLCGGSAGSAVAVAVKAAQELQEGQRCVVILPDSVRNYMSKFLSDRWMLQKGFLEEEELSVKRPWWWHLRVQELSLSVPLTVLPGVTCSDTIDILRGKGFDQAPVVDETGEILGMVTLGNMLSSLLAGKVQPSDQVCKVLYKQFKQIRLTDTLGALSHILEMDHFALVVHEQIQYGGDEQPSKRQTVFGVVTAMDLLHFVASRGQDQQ

[2] = target: T1, cystathionine synthase (CS); details: male, New Zealand, rabbit, in vivo, iv, 2 mg/kg
[3] = target: T2, oxoprolinase (Rattus norvegicus, UniProt P97608); details: enzymatic assay; cited from earlier work
T2 sequence (P97608 1-1288): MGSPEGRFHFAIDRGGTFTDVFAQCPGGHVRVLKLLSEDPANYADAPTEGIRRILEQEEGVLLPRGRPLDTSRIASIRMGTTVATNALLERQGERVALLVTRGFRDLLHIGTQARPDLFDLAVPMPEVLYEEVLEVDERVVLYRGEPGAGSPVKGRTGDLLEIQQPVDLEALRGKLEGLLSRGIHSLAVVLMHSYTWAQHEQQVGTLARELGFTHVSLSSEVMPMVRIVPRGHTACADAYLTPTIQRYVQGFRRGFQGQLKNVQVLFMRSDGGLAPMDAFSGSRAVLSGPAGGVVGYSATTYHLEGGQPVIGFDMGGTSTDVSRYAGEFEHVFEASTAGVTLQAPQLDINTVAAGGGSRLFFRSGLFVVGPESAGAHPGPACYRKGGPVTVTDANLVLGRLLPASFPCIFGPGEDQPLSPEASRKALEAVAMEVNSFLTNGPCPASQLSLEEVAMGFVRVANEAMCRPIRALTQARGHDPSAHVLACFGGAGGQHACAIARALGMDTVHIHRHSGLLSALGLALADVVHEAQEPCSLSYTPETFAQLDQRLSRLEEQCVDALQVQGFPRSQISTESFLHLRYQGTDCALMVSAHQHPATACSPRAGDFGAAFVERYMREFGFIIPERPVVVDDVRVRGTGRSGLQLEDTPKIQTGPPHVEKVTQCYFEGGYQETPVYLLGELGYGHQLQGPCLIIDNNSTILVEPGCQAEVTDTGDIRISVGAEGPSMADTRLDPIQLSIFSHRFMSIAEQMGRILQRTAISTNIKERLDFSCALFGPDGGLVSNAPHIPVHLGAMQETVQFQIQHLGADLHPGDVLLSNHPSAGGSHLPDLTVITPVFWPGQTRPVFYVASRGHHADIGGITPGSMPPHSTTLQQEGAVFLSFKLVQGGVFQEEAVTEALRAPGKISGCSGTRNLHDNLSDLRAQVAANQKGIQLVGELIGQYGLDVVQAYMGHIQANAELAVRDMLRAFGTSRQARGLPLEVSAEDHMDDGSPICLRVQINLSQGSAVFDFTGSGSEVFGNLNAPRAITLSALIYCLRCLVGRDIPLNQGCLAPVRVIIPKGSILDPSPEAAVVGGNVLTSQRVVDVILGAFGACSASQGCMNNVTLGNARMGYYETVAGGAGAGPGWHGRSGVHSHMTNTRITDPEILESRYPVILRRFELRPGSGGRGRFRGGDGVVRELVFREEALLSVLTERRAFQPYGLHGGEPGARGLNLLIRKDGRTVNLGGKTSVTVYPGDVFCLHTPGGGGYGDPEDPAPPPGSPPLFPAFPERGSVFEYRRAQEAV

[4] = target: T3, oxoprolinase (Homo sapiens, UniProt O14841); test: 13C-OTC breath test, metabolic rate index with and without acetaminophen; assay type: in vivo; details: for Metabolic Rate Index, ACE+: 2 gm acetaminophen one hour prior to OTC; for Metabolic Rate Index, BASAL: oral 13C-OTC 1.5 mg/kg alone
T3 construct: Seven healthy volunteers (ages 22-39) each participated in two studies; from tissue; host or cells: whole body of human volunteers (oral dose, breath test)
T3 sequence (O14841 1-1288): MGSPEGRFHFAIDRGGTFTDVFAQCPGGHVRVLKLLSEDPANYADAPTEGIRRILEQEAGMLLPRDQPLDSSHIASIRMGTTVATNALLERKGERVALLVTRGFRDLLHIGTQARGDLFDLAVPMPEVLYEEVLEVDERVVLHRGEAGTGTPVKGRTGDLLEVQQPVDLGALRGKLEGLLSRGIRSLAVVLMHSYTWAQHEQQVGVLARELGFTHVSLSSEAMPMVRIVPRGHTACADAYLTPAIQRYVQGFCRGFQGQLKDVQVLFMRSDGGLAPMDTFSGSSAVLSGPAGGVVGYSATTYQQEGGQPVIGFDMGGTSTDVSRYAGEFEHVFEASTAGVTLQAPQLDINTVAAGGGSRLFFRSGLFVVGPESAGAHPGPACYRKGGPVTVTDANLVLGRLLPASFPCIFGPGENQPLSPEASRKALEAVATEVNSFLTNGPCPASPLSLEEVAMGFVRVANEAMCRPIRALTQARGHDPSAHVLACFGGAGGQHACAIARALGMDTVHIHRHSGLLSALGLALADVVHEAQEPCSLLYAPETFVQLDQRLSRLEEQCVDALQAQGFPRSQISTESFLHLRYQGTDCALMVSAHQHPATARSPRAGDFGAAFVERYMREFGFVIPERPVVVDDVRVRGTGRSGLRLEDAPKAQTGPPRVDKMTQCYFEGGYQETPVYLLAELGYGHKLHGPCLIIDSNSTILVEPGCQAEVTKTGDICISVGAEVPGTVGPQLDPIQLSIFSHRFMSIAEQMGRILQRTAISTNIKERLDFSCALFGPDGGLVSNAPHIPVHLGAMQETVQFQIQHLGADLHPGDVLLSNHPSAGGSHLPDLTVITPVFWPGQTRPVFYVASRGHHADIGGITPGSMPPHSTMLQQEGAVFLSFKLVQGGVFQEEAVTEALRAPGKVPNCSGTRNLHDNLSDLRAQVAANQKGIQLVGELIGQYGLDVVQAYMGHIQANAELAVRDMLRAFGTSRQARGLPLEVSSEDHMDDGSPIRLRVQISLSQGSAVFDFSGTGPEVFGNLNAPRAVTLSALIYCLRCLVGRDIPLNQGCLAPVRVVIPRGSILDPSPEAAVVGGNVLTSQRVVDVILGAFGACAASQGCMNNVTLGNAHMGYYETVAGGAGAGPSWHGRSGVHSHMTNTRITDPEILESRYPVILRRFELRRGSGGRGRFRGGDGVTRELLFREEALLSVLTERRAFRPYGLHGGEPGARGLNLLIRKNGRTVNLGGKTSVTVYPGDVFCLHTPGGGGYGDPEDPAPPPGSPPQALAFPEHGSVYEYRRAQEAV
Description: Seven healthy volunteers (ages 22-39) each participated in two studies. After three days on a weight maintaining diet, each participant was given a drink containing ^13C-labelled OTC (1.5 mg/kg), following which blood and expired breath were sampled frequently. In the first test, each participant received the OTC alone. In the second study at least one week later, each participant ingested 2 gm acetaminophen one hour prior to the OTC drink. Expired breath samples were analyzed for the ^13C enrichment (APE) of CO2, and expressed as isotopic enrichment in atom per cent excess (APE×1000) versus time, in the usual manner and in accordance with the general protocol described in Example I. A second panel of probands (ages 53-73) were tested in a similar manner.
From the pattern of label enrichment, at least two types of kinetic processes are apparent, one is absorption, since the metaprobe was dispensed orally, and the other disposition.
Deconvolution of this model by equation transformation and coefficient matching (Wagner, 1993) afforded separate kinetic measurements for the post absorptive metabolism of OTC in the metabolic compartment, and this was expressed as a fractional catabolic rate (Lassen and Perl, 1979). Lastly, the per cent of metaprobe dose recovered in breath was computed from the cumulative integral of the ^13CO2 enrichment versus time plot multiplied by the CO2 production rate for each proband, which in these experiments were measured by indirect calorimetry (but can also be estimated from formulas that have been proven to correlate an individual's height, weight, age and gender with CO2 production). The metabolic index for OTC utilization by oxoprolinase was then computed by the simple expedient of multiplying the dose of metaprobe by the per cent recovery and then by the fractional catabolic rate.
The data from the validating trial in this Example III all corroborate the biochemical hypothesis concerning the OTC metaprobe's mode of action as an indicator of oxoprolinase activity and, therefore, its utility as a surrogate indicator for glutathione production capacity. The results, which are expressed in terms of nanomoles of OTC metabolized per kilogram body weight per minute for the basal condition (BASAL), post acetaminophen (ACE+), and the stimulatory difference between ACE+ and BASAL (STIM) are shown in Table 5.

Structure (SMILES)	LI, load tolerance index (BASAL minus MET+) [1]	Metabolic Response Index (MRI), BASAL [2]	action on oxoproline hydrolysis by oxoprolinase [3]	Metabolic Rate Index, ACE+ ([4]; ALL (22-73 yrs., n = 12)) [nmol/kg/min]	Metabolic Rate Index, ACE+ ([4]; OLD (53-73 yrs., n = 5)) [nmol/kg/min]	Metabolic Rate Index, ACE+ ([4]; YOUNG (22-39 yrs., n = 7)) [nmol/kg/min]	Metabolic Rate Index, STIM (difference between ACE+ and BASAL) ([4]; ALL (22-73 yrs., n = 12)) [nmol/kg/min]	Metabolic Rate Index, STIM (difference between ACE+ and BASAL) ([4]; OLD (53-73 yrs., n = 5)) [nmol/kg/min]	Metabolic Rate Index, STIM (difference between ACE+ and BASAL) ([4]; YOUNG (22-39 yrs., n = 7)) [nmol/kg/min]	Metabolic Rate Index, BASAL ([4]; ALL (22-73 yrs., n = 12)) [nmol/kg/min]	Metabolic Rate Index, BASAL ([4]; OLD (53-73 yrs., n = 5)) [nmol/kg/min]	Metabolic Rate Index, BASAL ([4]; YOUNG (22-39 yrs., n = 7)) [nmol/kg/min]
CCOC(=O)[C@@H]1CCSC(=O)N1 [Homocysteine Metaprobe, L-2-oxo-tetrahydro-1,3-thiazine-4-carboxylic acid ethyl ester]	57 +/− 24 (n = 4) MicroMol/kg/hr.	85 +/− 14 (n = 4) MicroMol/kg/hr.										
O=C(O)[C@@H]1CS[13C](=O)N1 [OTC, L-2-oxo[^13C]thiazolidine-4-carboxylic acid]			competitive inhibitor of oxoproline hydrolysis	515 ± 227	452 ± 161	547 ± 269	208 ± 82	117 ± 40	261 ± 115	307 ± 108	335 ± 110	286 ± 111
